Tested on: 292921-168-R-J2-PDC KRAS tumor spheroid viability
Assay: Anticancer human tumor 292921-168-R-J2-PDC patient-derived pancreatic carcinoma cell line growth inhibition [KRAS2]
Conditions: spheroids with HUVEC and MSC; for viability, T/C: stronger effect = lower value
Outline: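 Combination screen of spheroid viability in tumor-cell co-cultures with endothelial (HUVEC) and mesenchymal stem cell stroma. Each agent was tested in half-log dilutions, topping at clinical Cmax or at 10 microM without a known Cmax.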

[1] = curve of first compound, second compound 0.1 µM
[2] = curve of first compound, second compound 0.316 µM
[3] = curve of first compound, second compound 1 µM
[4] = curve of first compound, second compound 3.16 µM
[5] = curve of first compound, second compound 10 µM
[6] = second compound 0.1 µM, first compound 0.000316 µM
[7] = second compound 0.1 µM, first compound 0.001 µM
[8] = second compound 0.1 µM, first compound 0.00316 µM
[9] = second compound 0.1 µM, first compound 0.01 µM
[10] = second compound 0.1 µM, first compound 0.0316 µM
[11] = second compound 0.316 µM, first compound 0.000316 µM
[12] = second compound 0.316 µM, first compound 0.001 µM
[13] = second compound 0.316 µM, first compound 0.00316 µM
[14] = second compound 0.316 µM, first compound 0.01 µM
[15] = second compound 0.316 µM, first compound 0.0316 µM
[16] = second compound 1 µM, first compound 0.000316 µM
[17] = second compound 1 µM, first compound 0.001 µM
[18] = second compound 1 µM, first compound 0.00316 µM
[19] = second compound 1 µM, first compound 0.01 µM
[20] = second compound 1 µM, first compound 0.0316 µM
[21] = second compound 3.16 µM, first compound 0.000316 µM
[22] = second compound 3.16 µM, first compound 0.001 µM
[23] = second compound 3.16 µM, first compound 0.00316 µM
[24] = second compound 3.16 µM, first compound 0.01 µM
[25] = second compound 3.16 µM, first compound 0.0316 µM
[26] = second compound 10 µM, first compound 0.000316 µM
[27] = second compound 10 µM, first compound 0.001 µM
[28] = second compound 10 µM, first compound 0.00316 µM
[29] = second compound 10 µM, first compound 0.01 µM
[30] = second compound 10 µM, first compound 0.0316 µM
[31] = second compound 0.1 µM, first compound 0.1 µM
[32] = second compound 0.316 µM, first compound 0.1 µM
[33] = second compound 1 µM, first compound 0.1 µM
[34] = second compound 3.16 µM, first compound 0.1 µM
[35] = second compound 10 µM, first compound 0.1 µM
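Also: drug exposure lasted seven days after spheroids formed for three days.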
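For viability, T/C in this document: percent of DMSO vehicle control viability which is 100%.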

Compound `CC(=O)Nc1cccc(-n2c(=O)n(C3CC3)c(=O)c3c(Nc4ccc(I)cc4F)n(C)c(=O)c(C)c32)c1` + CNCc1ccccc1-c1csc(C(C)Nc2nc(C)nc3cc(OC)c(OC)cc23)c1 has an IC50 [1] of 0.207 nM, an IC50 [2] of 0.178 nM and an IC50 [3] of 0.124 nM. For the same compound, the IC50 [4] was < 0.1 nM, the IC50 [5] was < 0.1 nM and the viability, T/C (second compound 0.1 µM, first compound 0.0001 µM) was 66%. The viability, T/C [6] was 41.9%, the viability, T/C [7] was 20.2% and the viability, T/C [8] was 17.5%. It also gave a viability, T/C [9] of 12%, a viability, T/C [10] of 8.12% and a viability, T/C (second compound 0.316 µM, first compound 0.0001 µM) of 64.5%. For the same compound, the viability, T/C [11] was 35.3%, the viability, T/C [12] was 21.8% and the viability, T/C [13] was 16.3%. For the same compound, the viability, T/C [14] was 12.3%, the viability, T/C [15] was 8.64% and the viability, T/C (second compound 1 µM, first compound 0.0001 µM) was 55%. The viability, T/C [16] was 28.2%, the viability, T/C [17] was 17.9% and the viability, T/C [18] was 13.7%. The viability, T/C [19] was 10.4%, the viability, T/C [20] was 8.11% and the viability, T/C (second compound 3.16 µM, first compound 0.0001 µM) was 0.21%. It also gave a viability, T/C [21] of 0.07%, a viability, T/C [22] of 0.05% and a viability, T/C [23] of 0.04%. The viability, T/C [24] was 0.04%, the viability, T/C [25] was 0.15% and the viability, T/C (second compound 10 µM, first compound 0.0001 µM) was 0.11%. The viability, T/C [26] was 0.11%, the viability, T/C [27] was 0.11% and the viability, T/C [28] was 0.12%. The viability, T/C [29] was 0.12% and the viability, T/C [30] was 0.2%.

With `Cn1nccc1Nc1nccc(-c2cc3c(s2)C(C)(C)N(CCN2CCOCC2)C3=O)n1` + CC1OCC2(CCN(c3cnc(Sc4ccnc(N)c4Cl)c(N)n3)CC2)C1N the IC50 [1] was 39.3 nM, the IC50 [2] was < 31.6 nM and the IC50 [3] was < 31.6 nM. For the same compound, the IC50 [4] was < 31.6 nM, the IC50 [5] was < 31.6 nM and the viability, T/C [10] was 54.5%. For the same compound, the viability, T/C [31] was 30.8%, the viability, T/C (second compound 0.1 µM, first compound 0.316 µM) was 19.1% and the viability, T/C (second compound 0.1 µM, first compound 1 µM) was 11.7%. The viability, T/C (second compound 0.1 µM, first compound 3.16 µM) was 10.5%, the viability, T/C (second compound 0.1 µM, first compound 10 µM) was 11.7% and the viability, T/C [15] was 37.1%. The viability, T/C [32] was 25.7%, the viability, T/C (second compound 0.316 µM, first compound 0.316 µM) was 12.6% and the viability, T/C (second compound 0.316 µM, first compound 1 µM) was 10.9%. The viability, T/C (second compound 0.316 µM, first compound 3.16 µM) was 8.88%, the viability, T/C (second compound 0.316 µM, first compound 10 µM) was 9.52% and the viability, T/C [20] was 33.9%. The viability, T/C [33] was 21%, the viability, T/C (second compound 1 µM, first compound 0.316 µM) was 13.1% and the viability, T/C (second compound 1 µM, first compound 1 µM) was 9.76%. It also gave a viability, T/C (second compound 1 µM, first compound 3.16 µM) of 8.56%, a viability, T/C (second compound 1 µM, first compound 10 µM) of 9.6% and a viability, T/C [25] of 26.3%. For the same compound, the viability, T/C [34] was 19.7%, the viability, T/C (second compound 3.16 µM, first compound 0.316 µM) was 12.6% and the viability, T/C (second compound 3.16 µM, first compound 1 µM) was 8.37%. It also gave a viability, T/C (second compound 3.16 µM, first compound 3.16 µM) of 8.01%, a viability, T/C (second compound 3.16 µM, first compound 10 µM) of 8.06% and a viability, T/C [30] of 24.1%. The viability, T/C [35] was 17.6%, the viability, T/C (second compound 10 µM, first compound 0.316 µM) was 11% and the viability, T/C (second compound 10 µM, first compound 1 µM) was 8.12%. For the same compound, the viability, T/C (second compound 10 µM, first compound 3.16 µM) was 6.93% and the viability, T/C (second compound 10 µM, first compound 10 µM) was 7.35%.

For `CC1(C)CCC(CN2CCN(c3ccc(C(=O)NS(=O)(=O)c4ccc(NCC5CCOCC5)c([N+](=O)[O-])c4)c(Oc4cnc5[nH]ccc5c4)c3)CC2)=C(c2ccc(Cl)cc2)C1`, the viability, T/C (compound 0.0316 µM) was 102% [middle of 5 runs], the viability, T/C (compound 0.1 µM) was 98.2% [middle of 5 runs] and the viability, T/C (compound 0.316 µM) was 95.9% [middle of 5 runs]. For the same compound, the viability, T/C (compound 1 µM) was 100% [middle of 5 runs], the viability, T/C (compound 3.16 µM) was 27.2% [middle of 5 runs] and the viability, T/C (compound 10 µM) was 10.3% [middle of 5 runs]. The IC50 (curve of compound) was 2.17 µM [middle of 4 runs].

In the case of `COc1cc2nc(C)nc(NC(C)c3cc(N)cc(C(F)(F)F)c3)c2cc1OC1CCOC1` (stereo not drawn), the IC50 (compound alone, run of 09/02/2021) is reported as 4.36 µM [middle of 5 runs].

In the case of `CC(C)n1nc(-c2ccc3oc(N)nc3c2)c2c(N)ncnc21` + COc1cc2nc(C)nc(NC(C)c3cc(N)cc(C(F)(F)F)c3)c2cc1OC1CCOC1, the IC50 [1] is reported as 3.29 nM, the IC50 [2] is reported as 3.94 nM and the IC50 [3] is reported as 2.72 nM. For the same compound, the IC50 [4] was 1.34 nM, the IC50 [5] was < 0.316 nM and the viability, T/C [6] was 35%. For the same compound, the viability, T/C [7] was 74.8%, the viability, T/C [8] was 46.2% and the viability, T/C [9] was 38.8%. It also gave a viability, T/C [10] of 28.1%, a viability, T/C [31] of 26.2% and a viability, T/C [11] of 88%. It also gave a viability, T/C [12] of 73.2%, a viability, T/C [13] of 53.6% and a viability, T/C [14] of 35.7%. The viability, T/C [15] was 29.4%, the viability, T/C [32] was 24.1% and the viability, T/C [16] was 81.1%. The viability, T/C [17] was 68.9%, the viability, T/C [18] was 47% and the viability, T/C [19] was 30.5%. The viability, T/C [20] was 23.7%, the viability, T/C [33] was 21.2% and the viability, T/C [21] was 64.9%. The viability, T/C [22] was 54.2%, the viability, T/C [23] was 37.8% and the viability, T/C [24] was 26.3%. The viability, T/C [25] was 23.8%, the viability, T/C [34] was 20.6% and the viability, T/C [26] was 32.7%. The viability, T/C [27] was 26.4%, the viability, T/C [28] was 24.3% and the viability, T/C [29] was 17.7%. For the same compound, the viability, T/C [30] was 16.7% and the viability, T/C [35] was 15.5%.

For `CN(C)C/C=C/C(=O)Nc1cc2c(Nc3ccc(F)c(Cl)c3)ncnc2cc1O[C@H]1CCOC1` + CNCc1ccccc1-c1csc(C(C)Nc2nc(C)nc3cc(OC)c(OC)cc23)c1, the IC50 [1] was > 100 nM, the IC50 [2] was > 100 nM and the IC50 [3] was 48.9 nM. For the same compound, the IC50 [4] was 1.93 nM, the IC50 [5] was < 0.316 nM and the viability, T/C [6] was 90.9%. The viability, T/C [7] was 86.3%, the viability, T/C [8] was 72.4% and the viability, T/C [9] was 70.3%. It also gave a viability, T/C [10] of 64.5%, a viability, T/C [31] of 57.5% and a viability, T/C [11] of 82.4%. It also gave a viability, T/C [12] of 80.6%, a viability, T/C [13] of 70.6% and a viability, T/C [14] of 71.1%. The viability, T/C [15] was 58%, the viability, T/C [32] was 55% and the viability, T/C [16] was 74.4%. It also gave a viability, T/C [17] of 62%, a viability, T/C [18] of 60% and a viability, T/C [19] of 59.6%. For the same compound, the viability, T/C [20] was 56.1%, the viability, T/C [33] was 43.7% and the viability, T/C [21] was 105%. The viability, T/C [22] was 91.1%, the viability, T/C [23] was 0.17% and the viability, T/C [24] was 0.11%. For the same compound, the viability, T/C [25] was 74.7%, the viability, T/C [34] was 1.26% and the viability, T/C [26] was 0.13%. It also gave a viability, T/C [27] of 0.13%, a viability, T/C [28] of 0.09% and a viability, T/C [29] of 0.08%. It also gave a viability, T/C [30] of 0.13% and a viability, T/C [35] of 0.17%.

Reference: PubChem BioAssay AID1963870 (Molecular Pharmacology Branch, DTP, NCI, 2024)
